From patent publication US11952364B2, “TRK inhibitors useful as anticancer drugs” (TYLIGAND BIOSCIENCE (SHANGHAI) LIMITED, priority 2018, dated 2024) come the findings set out here.

Like-named read-outs stand apart in the source and are kept apart here.

In this experiment the test system is KM12 cells. The experiment is described as follows: Proliferation of KM12 cells (CellTiter-Glo). Format: cell-based, human. The following applies: Homo sapiens. The text has this:
KM12 is a human colon cancer cell line in which NTRK1 is highly expressed, and gene fusion occurs with TPM3 to form TPM3-NTRK1. • [Test method]: Promega's CellTiter-Glo® Luminescent Cell Viability Assay kit was used to evaluate the inhibitory activity of the compounds on the proliferation of KM12 cells. • [Instrument]: Spectramax M3 multifunctional microplate reader from Molecular Devices. • [Test materials]: KM12 cell line (ATCC, item number CRL-12496), 96-well transparent flat-bottomed black-walled cell culture plate (Corning, item number #3603), RPMI-1640 media (GE, cat #SH30027.01), Fetal Bovine Serum FBS (Thermo Fisher, cat #10099-141), CellTiter-Glo® Luminescent Cell Viability Assay Kit (Promega, cat #G7572), PBS (Solarbio, cat #P1020), Trypsin (Thermo Fisher, cat #25200072), DMSO (Sigma, cat #D2650). • [Experimental procedure]: When resuscitating KM12 cells, the freezing tube was quickly shaken in a 37° C. water bath to melt within 1 minute. The thawed cell suspension was mixed uniformly with RPMI1640 medium containing 10% FBS, centrifuged at 1000 rpm for 5 minutes, and the supernatant discarded. 5 mL of complete medium (RPMI1640 medium with 10% FBS) was taken to resuspend the cell pellets, charged into a cell culture flask with a bottom area of 25 cm^2, and incubated in a cell incubator at 37° C., 95% humidity and 5% CO2. Cells were allowed to passage when the cell confluence rate reached about 80%. For cell passage, the old medium was discarded, and the cells were washed twice with PBS, and 0.5 mL trypsin was added to digest the cells. Upon dispersing into single cells and exfoliating from the bottom of the cell culture flask, 4.5 mL of new complete medium was added to terminate the digestion. After pipetting the cell suspension evenly, 1/5 of the cell suspension was kept and added with 4 mL of new complete medium, and after pipetting evenly, the cell flask was placed in the cell incubator for further culturing. Cell plating was performed when the cell confluence rate reached about 80% again. For cell plating, 1/5 of the cell suspension was kept for further culturing as in the cell passage method, and the remaining 4/5 of the cell suspension was placed in a 15 mL centrifuge tube, detected for cell viability by Trypan blue exclusion method to ensure that cell viability was above 90%. A cell suspension with a density of 3.33×10^4 viable cells/mL was prepared with complete medium, and 90 μL of such cell suspension was added to a 96-well cell culture plate to obtain a cell density of 3000 viable cells/mL in the cell culture plate. A control group containing no cells, no compound and only complete medium (i.e. culture medium control) and a control group containing no compound but containing cells (i.e. cell control) were set. The cell plate was placed in a cell incubator overnight.
The 10 mM compound stock solution in DMSO was first serially diluted with DMSO at a dilution factor of 3.16 times, to obtain 9 concentrations, and the 10th concentration was set as DMSO control without compound. Then, PBS was used to dilute the DMSO solutions of compounds of different concentrations, at a dilution factor of 100 times, so that the DMSO concentration in the compound solution of each concentration was 1%. Finally, 10 μL of each of the above solutions was added to the corresponding cell culture plate, so that the initial compound concentration was 10 μM, with the remaining concentrations being successively diluted at a dilution factor of 3.16 times, and the DMSO content in the cell culture plate was 0.1%.
The cell plate was placed in a cell incubator and cultured for 72 hours. For endpoint detection, the CellTiter-Glo reagent was melted, and the cell plate was moved to room temperature to equilibrate for 30 minutes, added with 100 μL of CellTiter-Glo for each well, and shaken on an orbital shaker for 5 minutes to fully lyse the cells. […]

Setting [1] is: KM12, 72 h, Table 1, 72 hours, read-out: KM-12, IC50.

Turning to `CC(C)Oc1ccc(C(=O)Nc2ccc(Oc3cc4cnn5c4c(c3-c3cn[nH]c3)CC5)c(F)c2)c(=O)n1-c1ccc(F)cc1` [Example 34, N-(4-((5-(1H-pyrazol-4-yl)-6,7-dihydropyrrolo[3,2,1-hi]-indazol-4-yl)oxy)-3-fluorophenyl)-1-(4-fluorophenyl)-6-isopropoxy-2-oxo-12-dihydropyrndine-3-carboxamide], the IC50 (KM12, Table 9, read-out: KM12 cell proliferation inhibitory activity (IC50)) turned out to be 37 nM.

Regarding `O=C(Nc1cnn2ccc(N3CCC[C@@H]3c3cc(F)ccc3F)nc12)N1CC[C@H](O)C1` [LOXO-101, Larotrectinib, reference compound], the IC50 under setting [1] was 8.3 nM.

For `Cc1ccc(C(=O)Nc2ccc(Oc3cc4cnn(C)c4cc3-c3cn[nH]c3)c(F)c2)c(=O)n1-c1ccc(F)cc1` [Merestinib, reference compound], the IC50 under setting [1] was determined as 8.7 nM; the IC50 (KM12, Table 1-1, separate test, read-out: KM-12, IC50) is 33 nM; the IC50 (KM12, Table 1-2, separate test, read-out: KM-12, IC50) worked out at 59 nM; the IC50 (KM12, Table 1-3, separate test, read-out: KM-12, IC50) was found to be 27 nM.
